# Reference: patent US10975355B2, “Controlled induction of human pancreatic progenitors produces functional beta-like cells” (THE REGENTS OF THE UNIVERSITY OF CALIFORNIA, priority 2015, dated 2021)
# B1: N: the BMP inhibitor Noggin (N) (protein, UniProt Q13253 28-232, looked up)
# Noggin: QHYLHIRPAPSDNLPLVDLIEHPDPIFDPKEKDLNETLLRSLLGGHYDPGFMATSPPEDRPGGGGGAAGGAEDLAELDQLLRQRPSGAMPSEIKGLEFSEGLAQGKKQRLSKKLRRKLQMWLWSQTFCPVLYAWNDLGSRFWPRYVKVGSCFSKRSCSVPEGMVCKPSKSVHLTVLRWRCQRRGGQRCGWIPIQYPIISECKCSC
# Key:
# Type in all cases: cell-based, human
# [1] = tested on: MEL1 INS^GFP/W reporter cells (hESC); test: Flow cytometric analysis of pancreatic progenitor/endocrine markers in differentiating hESC spheres; conditions: for generation of PDX1+ cells over base media alone: group 1, factor alone days 6-8 (conditions 2 and 3), day 9.5
# Method: Undifferentiated MEL1 INS^GFP/W reporter cells (Micallef et al, 2012) were maintained on mouse embryo fibroblast feeder layers (Millipore) in hESC media as described (Guo et al, 2013b). Suspension-based differentiations were carried out as follows. Briefly, confluent cultures were dissociated into single cell suspension by incubation with TrypLE (Gibco). Cells were counted and each well of 6-well low-adherence plates were seeded with 5.5×10^6 cells in 5.5 ml hES media supplemented with 10 ng/ml Activin A (R&D systems) and 10 ng/ml HeregulinB1 (Peprotech). Plates were placed on an orbital shaker at 100 rpm to induce sphere formation, as described (Schulz et al, 2012). To induce definitive endoderm differentiation, aggregates were collected 24 hours later in a 50 ml falcon tube, allowed to settle by gravity, washed once with PBS and re-suspended in d1 media (RPMI (Gibco) containing 0.2% FBS, 1:5000 ITS (Gibco), 100 ng/ml Activin A, and 50 ng/ml WNT3a (R&D systems)). Clusters from 3 wells were combined into 2 wells at this point and distributed into fresh low-attachment plates in 5.5 ml d1 media. Media thereafter was changed daily, by removing either 4.5 ml media (at the end of d1) or 5.5 ml media the following days and adding back 5.5 ml fresh media until day 9. After day 9, only 5 ml of media was removed and added daily.
# Briefly, spheres were collected and allowed to settle by gravity. Clusters were washed once in PBS and dissociated by gentle pipetting after 12-15 minutes incubation in Accumax (innovative cell technologies). For sorting, cell suspension were filtered and re-suspended in FACS buffer consisting of phosphate-buffered saline (PBS) (UCSF cell culture facility) containing 2 mM EDTA (Ambion) and 1% BSA (Sigma). Dead cells were excluded by DAPI (Sigma) staining. Cell sorting was performed on a FACS Aria II (BD Bioscience). For flow-based analysis, dissociated cells were fixed with 4% paraformaldehyde (Electron Microscopy Science) for 15 minutes at room temperature, followed by two washes in PBS. Samples were either stored at 4 C or immediately stained with directly conjugated antibodies. Data analysis was performed with FlowJo software. Mouse Glucagon and mouse human C-peptide antibodies were conjugated in-house by the UCSF Antibody Core and/or with Antibody Labeling Kits (Molecular Probes) according to manufacturer's instructions. […]
# To characterize the type of progenitors present in differentiating cultures at the point of endocrine induction, we performed a detailed time course analysis for the expression of pancreatic markers PDX1, NKX6.1, NEUROG3, GCG and INS (FIG. 7). […] Indeed, the expression of NEUROG3 can be detected as early as day 6, when NKX6.1 protein is absent from all cells (FIGS. 7A and B). […]
# [2] = tested on: NEUROG3 and NKX2.2 mRNA transcripts; test: qPCR analysis of NEUROG3 and NKX2.2 transcripts at day 8 of differentiation; conditions: day 8, compared to RCN condition / during RCN or R treatment
# Method: Total RNA was isolated with TRIZOL (Sigma) or micro/mini RNAeasy kit (Qiagen) and reverse transcribed using the iScript cDNA Kit (Bio-Rad) according to manufacturer's instructions. qPCR analysis was performed on an ABI 7900 HT Fast Real-Time PCR System (Applied Biosystems) and CFX Connect Real Time System (Biorad) using standard protocols. Primers were Taqman Probes (Applied Biosystems) and/or as published previously (Liu et al, 2014). P-values were calculated using a two-tailed student's t-test.
# To characterize the type of progenitors present in differentiating cultures at the point of endocrine induction, we performed a detailed time course analysis for the expression of pancreatic markers PDX1, NKX6.1, NEUROG3, GCG and INS (FIG. 7). […] Indeed, the expression of NEUROG3 can be detected as early as day 6, when NKX6.1 protein is absent from all cells (FIGS. 7A and B). […] We thus expected that robust generation of PDX1+/NKX6.1+ progenitor cells prior to induction of NEUROG3 would allow efficient generation of beta-like cells in vitro. […] Spheres cultured under each condition were analyzed at day 9.5 by flow cytometry to quantify the expression of PDX1 and NKX6.1, and by conventional immunofluorescence analysis for NKX6.1 and NEUROG3 expression. […]
# [3] = tested on: NEUROG3 expression in hESC-derived clusters; test: Immunofluorescence (whole mount / sections) for NEUROG3 protein in differentiated clusters; conditions: day 9.5, whole mount staining
# Method: Spheres were fixed for 15-30 minutes at room temperature with 4% paraformaldehyde, followed by multiple washes in PBS. Whole mount staining was performed in suspension, by first blocking overnight at 4° C. in blocking buffer consisting of CAS-block (Invitrogen) with 0.2% TritonX (Fisher). Primary antibodies were incubated overnight at 4° C. in blocking buffer, followed by washes in PBS containing 0.1% Tween-20 (PBS-T, Sigma) and incubation in appropriate secondary antibodies diluted in PBS-T overnight at 4° C. The next day, clusters were washed in PBS-T followed by PBS and mounted with Vectashield (Vector) on glass slides. For sectioning of clusters, spheres were embedded in 2% Agar (Sigma), followed by dehydration, paraffin embedding, and sectioning. […]
# To characterize the type of progenitors present in differentiating cultures at the point of endocrine induction, we performed a detailed time course analysis for the expression of pancreatic markers PDX1, NKX6.1, NEUROG3, GCG and INS (FIG. 7). […] Indeed, the expression of NEUROG3 can be detected as early as day 6, when NKX6.1 protein is absent from all cells (FIGS. 7A and B). […] Spheres cultured under each condition were analyzed at day 9.5 by flow cytometry to quantify the expression of PDX1 and NKX6.1, and by conventional immunofluorescence analysis for NKX6.1 and NEUROG3 expression. […]
molecule,measurement,setting,value
"CC1=C2C[C@H]3[C@@H](CC=C4C[C@@H](O)CC[C@@]43C)[C@@H]2CC[C@]12O[C@@H]1C[C@H](C)CN[C@H]1[C@H]2C [C, Cyclopamine]",generation of PDX1+ cells over base media alone,[1],did not result in enhanced generation of PDX1+ cells
O=C1O[C@H]([C@@H](O)CO)C(O)=C1O [Vitamin C],NEUROG3 and NKX2.2 mRNA transcripts,[2],did not significantly lower
CC1=C(/C=C/C(C)=C/C=C/C(C)=C/C(=O)O)C(C)(C)CCC1 [retinoic acid],PDX1 positive progenitors,"[1]; group 1, exposure days 6-8, alone or combined (conditions 4, 5, 6), analysed day 9.5",> 88%
same,PDX1+ pancreatic progenitors generated,[1]; retinoic acid alone,more than 98%
B1,generation of PDX1+ cells over base media alone,[1],did not result in enhanced generation of PDX1+ cells
same,formation of NEUROG3 positive endocrine precursors,[3],induced
